# Experimental data as given in the supplement of paper PMC7017272.
# ± gives the standard deviation of the averaged measurements.
# Legend:
# UT-SCC-24A [1] = assay: drug sensitivity score (DSS); higher = more sensitive; conditions: treatment time: 3 days
# Procedure: (§1)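 HNSCC cell lines (500 cells/well, 384-well) were cultured on plastic, on top of (2D) or embedded (3D) in Matrigel or human leiomyoma matrix Myogel (500 ug/mL; Myogel 3D mixed with rat collagen I). Cells were treated for 3 days with 5 ten-fold concentrations of each drug, and viability was read by CellTiter-Glo. Suffixes _1/_2/_3 on drug names are replicates.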
# UT-SCC-24A [2] = assay: maximal % inhibition of viability relative to DMSO; higher = stronger effect; conditions: treatment time: 3 days
# Procedure: as §1, with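 “CellTiter-Glo. Viability was normalised to DMSO (0% inhibition) and 100 uM benzethonium chloride (100% inhibition) controls and fitted with the FIMM DSRT pipeline to give IC50 (nM), maximal % inhibition and the drug sensitivity score (DSS).” for “CellTiter-Glo.”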
# UT-SCC-106A [3] = assay: drug sensitivity score (DSS); higher = more sensitive; extreme values may be limits of the assay; conditions: treatment time: 3 days
# Method in brief: (§2)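 Viability was read with CellTiter-Glo 2.0 luminescence and scaled against vehicle (0.1% DMSO) and cell-killing control wells. The assay used HPV-negative HNSCC cell lines at 500 cells/well in 384-well plates, grown on plastic, on Matrigel or Myogel coatings (500 µg/mL), or embedded in Matrigel or Myogel plus rat collagen I, and treated for 3 days at five 10-fold concentrations. IC50, maximal inhibition and drug sensitivity score were derived from percent-inhibition dose–response curves fitted in the FIMM pipeline.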
# UT-SCC-14 = assay: as above; conditions: treatment time: 3 days
# Method in brief: as §2
# UT-SCC-24B = assay: as above; conditions: treatment time: 3 days
# Method in brief: as §2
# UT-SCC-28 = assay: as above; conditions: treatment time: 3 days
# Method in brief: as §2
# UT-SCC-40 [4] = assay: as above; conditions: treatment time: 3 days
# Method in brief: as §2
# UT-SCC-42A = assay: as above; conditions: treatment time: 3 days
# Method in brief: as §2
# UT-SCC-42B [5] = assay: as above; conditions: treatment time: 3 days
# Method in brief: as §2
# UT-SCC-44 [6] = assay: as above; conditions: treatment time: 3 days
# Method in brief: as §2
# UT-SCC-73 [7] = assay: as above; conditions: treatment time: 3 days
# Method in brief: as §2
# UT-SCC-81 = assay: as above; conditions: treatment time: 3 days
# Method in brief: as §2
# UT-SCC-8 = assay: as above; conditions: treatment time: 3 days
# Method in brief: as §2
# UT-SCC-106A [8] = assay: relative IC50 (midpoint of the fitted curve; maximal inhibition may be below 50%); higher = less potent; conditions: treatment time: 3 days
# Method in brief: as §2
# UT-SCC-40 [9] = assay: as above; conditions: treatment time: 3 days
# Method in brief: as §2
# UT-SCC-42B [10] = assay: as above; conditions: treatment time: 3 days
# Method in brief: as §2
# UT-SCC-44 [11] = assay: as above; conditions: treatment time: 3 days
# Method in brief: as §2
# UT-SCC-73 [12] = assay: as above; conditions: culture condition: embedded in Matrigel; treatment time: 3 days
# Method in brief: as §2
# UT-SCC-24A [13] = assay: relative IC50 (midpoint of the fitted curve; maximal inhibition may be below 50%); higher = less potent; conditions: treatment time: 3 days
# Procedure: as §1, with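 “CellTiter-Glo. Viability was normalised to DMSO (0% inhibition) and 100 uM benzethonium chloride (100% inhibition) controls and fitted with the FIMM DSRT pipeline to give IC50 (nM), maximal % inhibition and the drug sensitivity score (DSS).” for “CellTiter-Glo.”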
# [14] = culture condition: embedded in Matrigel
# [15] = culture condition: embedded in Myogel + collagen I
# [16] = culture condition: on top of Matrigel
# [17] = culture condition: on top of Myogel
# [18] = culture condition: plastic 2D (no matrix)
structure (smiles),measurement,setting,value
CN(C)C/C=C/C(=O)Nc1cc2c(Nc3ccc(F)c(Cl)c3)ncnc2cc1O[C@H]1CCOC1 [Afatinib],drug sensitivity score,UT-SCC-24A [1]; [14],20.6 ± 3.3 DSS
same,drug sensitivity score,UT-SCC-24A [1]; [15],8.9 ± 5.3 DSS
same,drug sensitivity score,UT-SCC-24A [1]; [16],16.6 ± 2.1 DSS
same,drug sensitivity score,UT-SCC-24A [1]; [17],2.93 ± 2.1 DSS
same,drug sensitivity score,UT-SCC-24A [1]; [18],15.6 ± 3.1 DSS
same,maximal % inhibition of viability,UT-SCC-24A [2]; [14],79.9 ± 1.1%
same,maximal % inhibition of viability,UT-SCC-24A [2]; [15],38.8 ± 2.3%
same,maximal % inhibition of viability,UT-SCC-24A [2]; [16],68.23 ± 0.59%
same,maximal % inhibition of viability,UT-SCC-24A [2]; [17],20.3 ± 3.7%
same,maximal % inhibition of viability,UT-SCC-24A [2]; [18],67.1 ± 4%
same,drug sensitivity score,UT-SCC-106A [3]; [14],10.9 ± 1.4 DSS
same,drug sensitivity score,UT-SCC-106A [3]; [15],0 DSS
same,drug sensitivity score,UT-SCC-106A [3]; [16],13.7 ± 2.2 DSS
same,drug sensitivity score,UT-SCC-106A [3]; [17],0.133 ± 0.23 DSS
same,drug sensitivity score,UT-SCC-106A [3]; [18],13.7 ± 1.7 DSS
same,drug sensitivity score,UT-SCC-14; [14],13.8 ± 3 DSS
same,drug sensitivity score,UT-SCC-14; [15],9.3 ± 6.4 DSS
same,drug sensitivity score,UT-SCC-14; [16],12.5 ± 1.4 DSS
same,drug sensitivity score,UT-SCC-14; [17],7.33 ± 3.8 DSS
same,drug sensitivity score,UT-SCC-14; [18],12.1 ± 4.1 DSS
same,drug sensitivity score,UT-SCC-24B; [14],11.4 ± 0.72 DSS
same,drug sensitivity score,UT-SCC-24B; [15],4.57 ± 0.58 DSS
same,drug sensitivity score,UT-SCC-24B; [16],10.9 ± 0.96 DSS
same,drug sensitivity score,UT-SCC-24B; [17],2.3 ± 0.7 DSS
same,drug sensitivity score,UT-SCC-24B; [18],16.1 ± 0.56 DSS
same,drug sensitivity score,UT-SCC-28; [14],0 DSS
same,drug sensitivity score,UT-SCC-28; [15],0 DSS
same,drug sensitivity score,UT-SCC-28; [16],0.233 ± 0.32 DSS
same,drug sensitivity score,UT-SCC-28; [18],0 DSS
same,drug sensitivity score,UT-SCC-40 [4]; [14],16 ± 1.1 DSS
same,drug sensitivity score,UT-SCC-40 [4]; [15],2.93 ± 3.1 DSS
same,drug sensitivity score,UT-SCC-40 [4]; [16],14.5 ± 1.1 DSS
same,drug sensitivity score,UT-SCC-40 [4]; [17],3.37 ± 1.5 DSS
same,drug sensitivity score,UT-SCC-40 [4]; [18],10.2 ± 1.3 DSS
same,drug sensitivity score,UT-SCC-42A; [14],9.73 ± 3.1 DSS
same,drug sensitivity score,UT-SCC-42A; [15],0.767 ± 1.3 DSS
same,drug sensitivity score,UT-SCC-42A; [16],12.7 ± 1.4 DSS
same,drug sensitivity score,UT-SCC-42A; [17],4.33 ± 1.3 DSS
same,drug sensitivity score,UT-SCC-42A; [18],10.3 ± 2.3 DSS
same,drug sensitivity score,UT-SCC-42B [5]; [14],15.7 ± 1.7 DSS
same,drug sensitivity score,UT-SCC-42B [5]; [16],11.6 ± 1.6 DSS
same,drug sensitivity score,UT-SCC-42B [5]; [17],0 DSS
same,drug sensitivity score,UT-SCC-42B [5]; [18],6.6 ± 0.72 DSS
same,drug sensitivity score,UT-SCC-44 [6]; [14],0.233 ± 0.4 DSS
same,drug sensitivity score,UT-SCC-44 [6]; [15],0 DSS
same,drug sensitivity score,UT-SCC-44 [6]; [16],0 DSS
same,drug sensitivity score,UT-SCC-44 [6]; [17],0 DSS
same,drug sensitivity score,UT-SCC-44 [6]; [18],0 DSS
same,drug sensitivity score,UT-SCC-73 [7]; [14],2.43 ± 1.8 DSS
same,drug sensitivity score,UT-SCC-73 [7]; [15],3.1 ± 5.4 DSS
same,drug sensitivity score,UT-SCC-73 [7]; [16],0 DSS
same,drug sensitivity score,UT-SCC-73 [7]; [17],0.433 ± 0.75 DSS
same,drug sensitivity score,UT-SCC-73 [7]; [18],1.47 ± 1.2 DSS
same,drug sensitivity score,UT-SCC-81; [14],23 ± 2.7 DSS
same,drug sensitivity score,UT-SCC-81; [15],6.47 ± 11 DSS
same,drug sensitivity score,UT-SCC-81; [16],18.5 ± 2.3 DSS
same,drug sensitivity score,UT-SCC-81; [17],1.6 ± 0.66 DSS
same,drug sensitivity score,UT-SCC-81; [18],12.5 ± 1.2 DSS
same,drug sensitivity score,UT-SCC-8; [14],19.8 ± 0.42 DSS
same,drug sensitivity score,UT-SCC-8; [15],0.333 ± 0.58 DSS
same,drug sensitivity score,UT-SCC-8; [16],19 ± 0.44 DSS
same,drug sensitivity score,UT-SCC-8; [17],8.37 ± 4.4 DSS
same,drug sensitivity score,UT-SCC-8; [18],18 ± 1.5 DSS
same,relative IC50,UT-SCC-106A [8]; [14],8.12 nM
same,relative IC50,UT-SCC-106A [8]; [15],> 989 nM
same,relative IC50,UT-SCC-106A [8]; [16],7.76 nM
same,relative IC50,UT-SCC-106A [8]; [18],11.7 nM
same,relative IC50,UT-SCC-40 [9]; [14],21.3 nM
same,relative IC50,UT-SCC-40 [9]; [16],24.2 nM
same,relative IC50,UT-SCC-40 [9]; [18],33.1 nM
same,relative IC50,UT-SCC-42B [10]; [14],17.3 nM
same,relative IC50,UT-SCC-42B [10]; [16],17.7 nM
same,relative IC50,UT-SCC-42B [10]; [18],27.5 nM
same,relative IC50,UT-SCC-44 [11]; [15],> 989 nM
same,relative IC50,UT-SCC-44 [11]; [18],> 989 nM
same,relative IC50,UT-SCC-73 [12],32 nM
same,relative IC50,UT-SCC-24A [13]; [14],8.03 nM
same,relative IC50,UT-SCC-24A [13]; [16],9.88 nM
same,relative IC50,UT-SCC-24A [13]; [18],12.8 nM
